Data as given in patent publication US10752612B2, “PLK4 inhibitors” (LUDWIG INSTITUTE FOR CANCER RESEARCH LTD, priority 2015, dated 2020).

Target: T1, human Plk4 kinase domain (aa 2-275) (Homo sapiens, UniProt O00444)
T1 construct: purified 6×His-tagged human Plk4 kinase domain (aa 2-275); 6xHis; made in house; host or cells: E. coli
T1 sequence (O00444 2-275): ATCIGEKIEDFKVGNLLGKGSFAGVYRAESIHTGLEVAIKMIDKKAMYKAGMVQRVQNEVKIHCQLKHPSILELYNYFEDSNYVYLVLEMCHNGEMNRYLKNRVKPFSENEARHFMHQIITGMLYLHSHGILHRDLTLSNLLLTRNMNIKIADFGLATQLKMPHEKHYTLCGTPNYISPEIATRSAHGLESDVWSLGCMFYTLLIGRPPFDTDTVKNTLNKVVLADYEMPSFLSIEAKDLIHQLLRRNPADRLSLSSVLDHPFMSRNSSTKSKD
Experiment: Plk4 kinase assay (ADP-Glo)
Format: biochemical
Details: Table 1
Procedure, shortened: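 Enzyme at 2.5-10 nM final, pH 8.0, reacted 4-16 hours at 25° C; ADP generation read by ADP-Glo luminescence. Ki derived from IC50 by Cheng-Prusoff or, for tight binders, Copeland formalism.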

Row | Compound | IC50 [nM]
1 | CCOc1c(Nc2cc(C)[nH]n2)nc(Sc2ccc(NC(=O)C3CC3)cc2)nc1N1CCCCC1 | 100 to 1000
2 | COc1c(Nc2cc(C)[nH]n2)nc(Sc2ccc(NC(C)=O)cc2)nc1N1CCCCCC1 | 100 to 1000
3 | COc1c(Nc2cc(C)[nH]n2)nc(SC)nc1N1CCN(CCN(C)C)CC1 | 100 to 1000
4 | CCOc1c(Nc2cc(C)[nH]n2)nc(Sc2ccc(NC(=O)C3CCCC3)cc2)nc1N1CCN(C(=O)CN(C)C)CC1 | 100 to 1000
5 | CCOc1c(Nc2cc(C)[nH]n2)nc(Sc2ccc(NC(=O)C3CCCC3)cc2)nc1N1CCN(C2CCN(C)CC2)CC1 | 100 to 1000
6 | COc1c(Nc2cc(C)[nH]n2)nc(Sc2ccccc2)nc1N1CCN(CCN(C)C)CC1 | 100 to 1000
7 | COc1c(Nc2cc(C)[nH]n2)nc(Sc2ccc(S(=O)(=O)Cc3ccccc3)cc2)nc1N1CCN(CCN2C3CCCC2CCC3)CC1 | < 1000
8 | CCS(=O)(=O)c1ccc(Sc2nc(Nc3cc(C)[nH]n3)c(OC)c(N3CCN(C)CC3)n2)c(Cl)c1 | < 1000
9 | COc1c(Nc2cc(C)[nH]n2)nc(Sc2ccc(NC(=O)C3CC3)cc2)nc1N1CCN(CCN(C)C)CC1 | < 1000
10 | CCS(=O)(=O)c1ccc(Sc2nc(Nc3cc(C)[nH]n3)c(OC)c(N3CCNCC3)n2)cc1 | < 1000
11 | COc1c(Nc2cc(C)[nH]n2)nc(Sc2ccc(S(C)(=O)=O)cc2F)nc1N1CCN(CCN(C)C)CC1 | < 1000
12 | COc1ccc(CS(=O)(=O)c2ccc(Sc3nc(Nc4cc(C)[nH]n4)c(OC)c(N4CCOCC4)n3)c(F)c2)cc1 | < 1000
13 | CNC(=O)Nc1ccc(Sc2nc(Nc3cc(C)[nH]n3)c(C)c(N3CCC(O)CC3)n2)cc1 | < 1000
14 | COc1c(Nc2cc(C)[nH]n2)nc(Sc2ccc(S(=O)(=O)Cc3ccncc3)cc2)nc1N1CCN(CCN(C)C)CC1 | < 1000
15 | COc1c(Nc2cc(C)[nH]n2)nc(Sc2ccc(S(=O)(=O)Cc3ccccc3)cc2)nc1N1CCCCC1 | < 1000
16 | Cc1cc(Nc2nc(Sc3ccc(NC(=O)C4CC4)cc3)nc(N(C)CCN(C)C)c2C)n[nH]1 | < 1000
17 | COc1c(Nc2cc(C)[nH]n2)nc(Sc2ccc(C(=O)Nc3cccc([N+](=O)[O-])c3F)cc2F)nc1N1CCOCC1 | < 1000
18 | COc1c(Nc2cc(C)[nH]n2)nc(Sc2ccc(NC(=O)Cc3cccc([N+](=O)[O-])c3F)cc2F)nc1N1CCOCC1 | < 1000
19 | COc1c(Nc2cc(C)[nH]n2)nc(Sc2ccc(NC(C)=O)cc2)nc1N1CC=C(F)CC1 | < 1000
20 | CC(=O)Nc1ccc(Sc2nc(Nc3cc(C)[nH]n3)c(Cl)c(N3CCCCC3)n2)cc1 | < 1000
21 | CC(=O)Nc1ccc(Sc2nc(Nc3cc(C)[nH]n3)c(C)c(NC3CCNCC3)n2)cc1 | < 1000
22 | COc1c(Nc2cc(C)[nH]n2)nc(Sc2ccc(NC(C)=O)cc2)nc1N1CCN(CCNC(=N)N)CC1 | < 1000
23 | COc1c(Nc2cc(C)[nH]n2)nc(Sc2ccc(S(=O)(=O)C(C)(C)c3cccc([N+](=O)[O-])c3F)cc2F)nc1N1CCC(CC(=O)N(C)C)CC1 | < 1000
24 | COc1c(Nc2cc(C)[nH]n2)nc(Sc2ccc(NC(C)=O)cc2)nc1N1CCC(C)CC1 | 100 to 1000
25 | COc1c(Nc2cc(C)[nH]n2)nc(Sc2ccc(S(=O)(=O)Cc3cccc([N+](=O)[O-])c3F)cc2)nc1N1CCCCC1 | < 1000
26 | COc1ccccc1CS(=O)(=O)c1ccc(Sc2nc(Nc3cc(C)[nH]n3)c(OC)c(N3CCN(CCN(C)C)CC3)n2)cc1 | < 1000

Row | Compound | IC50 [nM]
27 | COc1c(Nc2cc(C)[nH]n2)nc(Sc2ccc(NC(C)=O)cc2)nc1N1CCC(CC(=O)N(C)C)CC1 | < 1000
28 | COc1c(Nc2cc(C)[nH]n2)nc(Sc2ccc(NC(C)=O)cc2)nc1C1=CCN(C)CC1 | < 1000
29 | CCOc1c(Nc2cc(C)[nH]n2)nc(Sc2ccc(NC(=O)C3CC3)cc2)nc1N(CC)CC [drawing 123] | < 1000
30 | COc1c(Nc2cc(C)[nH]n2)nc(Sc2ccc(S(=O)(=O)C(C)(C)c3cccc([N+](=O)[O-])c3F)cc2F)nc1N1CCN(C(=O)CN(C)C)CC1 | < 1000
31 | COc1c(Nc2cc(C)[nH]n2)nc(Sc2ccc(NC(C)=O)cc2)nc1N1CCCCC1 | < 1000
32 | CCOc1c(Nc2cc(C)[nH]n2)nc(Sc2ccc(NC(=O)C3CCCC3)cc2)nc1N1CCN(C(=O)COC)CC1 | 100 to 1000
33 | COc1c(Nc2cc(C)[nH]n2)nc(Sc2ccc(S(C)(=O)=O)cc2)nc1C1CCN(CCN(C)C)CC1 | 100 to 1000
34 | CCN(C)c1nc(Sc2ccc(NC(=O)C3CC3)cc2)nc(Nc2cc(C)[nH]n2)c1C | < 1000
35 | COc1c(Nc2cc(C)[nH]n2)nc(Sc2ccc(S(=O)(=O)Cc3ccccc3)cc2)nc1N1CCN(C)CC1 | < 1000
36 | CCOc1c(Nc2cc(C)[nH]n2)nc(Sc2ccc(NC(=O)C3CC3)cc2)nc1N(CC)CC [drawing 127] | 100 to 1000
37 | COc1c(Nc2cc(C)[nH]n2)nc(Sc2ccc(S(=O)(=O)C(C)(C)c3cccc([N+](=O)[O-])c3F)cc2F)nc1N1CCN(CCN(C)C)CC1 | < 1000
38 | COCC(=O)N1CCN(c2nc(Sc3ccccc3)nc(Nc3cc(C)[nH]n3)c2C)CC1 | < 1000
39 | CCOc1c(Nc2cc(C)[nH]n2)nc(Sc2ccc(NC(=O)C3CC3)cc2)nc1N(C)C [drawing 125] | < 1000
40 | COc1c(Nc2cc(C)[nH]n2)nc(Sc2ccc(S(=O)(=O)Cc3cccc([N+](=O)[O-])c3F)cc2F)nc1N1CCC(CCN(C)C)CC1 | < 1000
41 | COc1c(Nc2cc(C)[nH]n2)nc(Sc2ccc(S(=O)(=O)Cc3cccc(Br)c3F)cc2F)nc1N1CCCCC1 | < 1000
42 | CCOc1c(Nc2cc(C)[nH]n2)nc(Sc2ccc(NC(=O)C3CCCC3)cc2)nc1N1CCN(C2CCNCC2)CC1 | 100 to 1000
43 | CCN(C)c1nc(Sc2ccc(NC(C)=O)cc2)nc(Nc2cc(C)[nH]n2)c1OC | < 1000
44 | COc1c(Nc2cc(C)[nH]n2)nc(Sc2ccc(S(=O)(=O)Cc3cc([N+](=O)[O-])ccc3F)cc2)nc1N1CCN(CCN(C)C)CC1 | < 1000
45 | CCOc1c(Nc2cc(C)[nH]n2)nc(Sc2ccc(NC(=O)C3CC3)cc2)nc1N1CCN(CCN(C)C)CC1 | 100 to 1000
46 | COc1c(Nc2cc(C)[nH]n2)nc(Sc2ccc(S(=O)(=O)CCN(C)C)cc2)nc1N1CCN(CCN(C)C)CC1 | < 1000
47 | COc1c(Nc2cc(C)[nH]n2)nc(Sc2ccc(S(=O)(=O)Cc3ccccc3F)cc2)nc1N1CCOCC1 | < 1000
48 | COc1c(Nc2cc(C)[nH]n2)nc(Sc2ccc(NC(=O)C3CC3)cc2)nc1N1CCN(C(=O)CCN(C)C)CC1 | < 1000
49 | COc1c(Nc2cc(C)[nH]n2)nc(Sc2ccc(S(=O)(=O)Cc3ccccc3)cc2)nc1C1CCN(CCN(C)C)CC1 | < 1000
50 | COc1c(Nc2cc(C)[nH]n2)nc(Sc2ccc(C(=O)N(C)C)cc2)nc1N1CCN(CCN(C)C)CC1 | < 1000
51 | Cc1cc(Nc2nc(Sc3ccccc3)nc(N3CCC(O)CC3)c2C)n[nH]1 | < 1000

The next lines start with the values.

Row | IC50 [nM] | Compound
52 | < 1000 | COc1c(Nc2cc(C)[nH]n2)nc(Sc2ccc(S(=O)(=O)Cc3cccc([N+](=O)[O-])c3F)cc2)nc1N1CCOCC1
53 | < 1000 | COc1c(Nc2cc(C)[nH]n2)nc(Sc2cccc(NC(C)=O)c2)nc1N1CCN(CCN(C)C)CC1
54 | < 1000 | COc1c(Nc2cc(C)[nH]n2)nc(Sc2ccc(NC(C)=O)cc2)nc1N1CCC(F)(F)CC1
55 | < 1000 | COc1c(Nc2cc(C)[nH]n2)nc(Sc2ccc(S(=O)(=O)C(C)(C)c3cccc([N+](=O)[O-])c3F)cc2F)nc1N1CC[C@H](N(C)C)C1
56 | < 1000 | COc1ccc([N+](=O)[O-])cc1CS(=O)(=O)c1ccc(Sc2nc(Nc3cc(C)[nH]n3)c(OC)c(N3CCN(CCN(C)C)CC3)n2)cc1
57 | < 1000 | COc1c(Nc2cc(C)[nH]n2)nc(Sc2ccc(S(=O)(=O)C(C)(C)c3c(F)c(F)cc(F)c3F)cc2F)nc1N1CCC(OC)CC1
58 | < 1000 | COc1c(Nc2cc(C)[nH]n2)nc(Sc2ccc(S(=O)(=O)Cc3ccccc3)cc2)nc1N1CCOC[C@H]1C
59 | < 1000 | Cc1cc(Nc2nc(Sc3ccc(NC(=O)C4CC4)cc3)nc(C)c2C)n[nH]1
60 | < 1000 | Cc1ccc(Sc2nc(Nc3cc(C)[nH]n3)c(C)c(N3CCCCC3)n2)cc1
61 | < 1000 | CC(=O)Nc1ccc(Sc2nc(Nc3cc(C)[nH]n3)c(C)c(N3CCN(C(C)C)CC3)n2)cc1
62 | < 1000 | Cc1cc(Nc2nc(Sc3ccc([N+](=O)[O-])cc3)nc3c2CCC32CCN(C(=O)C(C)(C)C)CC2)n[nH]1
63 | < 1000 | CC(=O)Nc1ccc(Sc2nc(Nc3cc(C)[nH]n3)c(C)c(N3CCC(O)CC3C)n2)cc1 (stereo not drawn)
64 | < 1000 | COc1c(Nc2cc(C)[nH]n2)nc(Sc2ccc(S(=O)(=O)Cc3ccccc3)cc2)nc1N1CCO[C@H](C)C1
65 | < 1000 | COc1c(Nc2cc(C)[nH]n2)nc(Sc2ccc(S(=O)(=O)Cc3cccc([N+](=O)[O-])c3F)cc2F)nc1N1CCOC[C@@H]1C
66 | < 1000 | CC(=O)Nc1ccc(Sc2nc(Nc3cc(C)[nH]n3)c(C)c(N3CCN(CCN(C)C)CC3)n2)cc1
67 | < 1000 | COc1c(Nc2cc(C)[nH]n2)nc(Sc2ccc(S(=O)(=O)Cc3ccccc3C(F)(F)F)cc2)nc1N1CCN(CCN(C)C)CC1
68 | < 1000 | COc1c(Nc2cc(C)[nH]n2)nc(Sc2ccc(S(C)(=O)=O)cc2F)nc1N1CCOC[C@@H]1C
69 | < 1000 | Cc1cc(Nc2nc(Sc3ccc(NC(=O)C4CC4)cc3)nc(Cl)c2C)n[nH]1
70 | < 1000 | CCOc1c(Nc2cc(C)[nH]n2)nc(Sc2ccc(NC(=O)C3CC3)cc2)nc1N1CCOCC1
71 | < 1000 | COc1c(Nc2cc(C)[nH]n2)nc(Sc2ccc(S(=O)(=O)Cc3ccccc3)cc2)nc1N1CCN(CCN2CCN(C)CC2)CC1
72 | < 1000 | CCCS(=O)(=O)c1ccc(Sc2nc(Nc3cc(C)[nH]n3)c(OC)c(N3CCN(CCN(C)C)CC3)n2)cc1
73 | < 1000 | COc1c(Nc2cc(C)[nH]n2)nc(Sc2ccc(S(=O)(=O)Cc3cccc([N+](=O)[O-])c3F)cc2)nc1N1CCN(CCN(C)C)CC1
74 | < 1000 | COc1c(Nc2cc(C)[nH]n2)nc(Sc2ccc(NC(C)=O)cc2)nc1N1CCN(C(=O)CN(C)C)CC1
75 | < 1000 | COCC(=O)N1CCN(c2nc(Sc3ccc(NC(=O)C4CCCC4)cc3)nc(Nc3cc(C)[nH]n3)c2C)CC1
